The structures appear in SMILES notation. Converted amounts (≈) assume the structure as drawn. Bounds are passed on as bounds.

For the data set the following is noted: buffer; pH 7.4; 200.0 µM.
What is called solubility (kinetic) is the concentration staying in solution when a stock, usually in DMSO, is diluted into the medium. Consider `C=CCn1c(=O)c(C(=O)Nc2ccc(C)cc2)c(O)c2ccccc21`, for which the solubility (kinetic) is < 0.4 µg/mL. `N#Cc1ccc(NCC(=O)Nc2ccc3c(c2)OCCO3)cc1` had a solubility (kinetic) of 29.6 µg/mL (≈ 95.7 µM). In the case of `O=C(/C=C/c1cccc(F)c1)OCC(=O)N1CCc2ccccc21`, the solubility (kinetic) is 3.2 µg/mL (≈ 9.84 µM). In turn, `N#Cc1ccc(-c2nc3ccc(Br)cc3c(=O)n2O)cc1` had a solubility (kinetic) of 18.1 µg/mL (≈ 52.9 µM). Against the preceding compound, the solubility kinetic is about 5.7-fold higher.

As to `Cc1ccccc1OCC(O)CN1CCCCC1.Cl` (configuration not stated), the solubility (kinetic) is > 42.9 µg/mL. Consider `Cc1ccc2c(COC(=O)CNC(=O)c3ccco3)cc(=O)oc2c1C`, for which the kinetic solubility was determined as 13.1 µg/mL (≈ 36.9 µM). On to `Cc1ccc([N+](=O)[O-])c(NC(=O)COC(=O)C2CC3CCCC(C2)C3=O)c1C` (configuration not stated), for which the kinetic solubility is > 58.3 µg/mL.

Take `COc1cc(C(=O)NCC(=O)OCc2ccc(F)cc2)cc(OC)c1OC`: the solubility (kinetic) stood at 11.8 µg/mL (≈ 31.3 µM). For `CCCN(Cc1cc2cc(OC)ccc2[nH]c1=O)C(=O)c1ccco1`, the solubility (kinetic) amounted to 45.2 µg/mL (≈ 133 µM). The compound `COc1ccccc1CCN=C(N)NS(=O)(=O)c1ccc(C)c(C)c1` had a kinetic solubility of 8.3 µg/mL (≈ 23 µM). Compound `Cc1ccc2[nH]c(C)c(CCNC(=O)c3c(N)no[n+]3[O-])c2c1` gave a solubility (kinetic) of 5 µg/mL (≈ 15.9 µM). With `CC(N)Cc1c[nH]c2c1ccc1ccccc12.Cl` (configuration not stated), the solubility (kinetic) is 33.9 µg/mL.

On to `NCCCS(=O)(=O)O`, for which the kinetic solubility was < 0.3 µg/mL.

`N#CCCN(Cc1cccnc1)C(=S)NC1CC2C=CC1C2` (configuration not stated): the solubility (kinetic) was > 46.9 µg/mL. Next, `CN1CCN(c2nnc(-c3ccc(F)cc3)c3ccccc23)CC1`: > 48.4 µg/mL; `Cc1ccc(S(=O)(=O)N2CCCCC2)cc1NC(=O)Cc1cccs1`: 20.6 µg/mL (≈ 54.4 µM); `CC(=O)c1c(C)n(-c2ccc(C)cc2)c2ccc(O)cc12`: < 0.6 µg/mL.

`CN(C)c1ccc(/C=C/C#N)cc1` came in with a solubility (kinetic) of 5.4 µg/mL (≈ 31.4 µM). Take `Cn1c(=O)c2c(nc3n2CC(O)CN3c2ccccc2)n(C)c1=O` (configuration not stated): the kinetic solubility was > 49.1 µg/mL.

Regarding `CC(Oc1ccc(Cl)cc1)C(=O)N1CCCc2ccccc21` (configuration not stated), the solubility (kinetic) was 2.1 µg/mL (≈ 6.65 µM). In turn, `COc1cccc(NC(=O)c2cncs2)c1` had a kinetic solubility of 32.9 µg/mL (≈ 140 µM). Against the preceding compound, the solubility kinetic is about 16-fold higher. Regarding `CN1CCCN=C1COC(=O)C(O)(c1ccccc1)C1CCCCC1.Cl` (configuration not stated), the kinetic solubility was > 57.1 µg/mL. In the case of `C=CCNC(=S)/N=c1/ccccn1CCC`, the solubility (kinetic) was found to be 35.1 µg/mL (≈ 149 µM).

Consider `CCCSc1nc2ccccc2n1CC(=O)O`, for which the solubility (kinetic) was > 37.5 µg/mL. On to `CCOc1ccc2oc(C(=O)OCC(=O)NC(=O)NC)c(C)c2c1`, for which the kinetic solubility turned out to be 1.9 µg/mL (≈ 5.68 µM). In the case of `COc1cccc(CNC(=O)Cn2ccc([N+](=O)[O-])n2)c1`, the kinetic solubility is > 43.5 µg/mL. Then `Cc1cc(NC(=O)C2CC(=O)N(c3cccc(Cl)c3)C2)no1` (configuration not stated), with 16.3 µg/mL (≈ 51 µM); and `CC(=O)c1ccc(N/C=C/C(=O)c2ccc(Br)cc2)cc1`, with 0.8 µg/mL (≈ 2.32 µM); and `Cc1ccc2nc(Cl)c(/C=C/C(=O)c3ccco3)cc2c1`, with 15.4 µg/mL (≈ 51.7 µM). Then `CN1N=C(C(=O)Nc2ccc3c(c2)CCC3)CCC1=O`, with > 40.7 µg/mL. In the case of `C[C@H](NC(=O)c1ccco1)C(=O)N1CCN(c2ccc(C(F)(F)F)cn2)CC1`, the solubility (kinetic) was > 59.5 µg/mL. Next, `O=C(COC(=O)Cc1ccccc1)Nc1cccnc1Cl`: > 45.7 µg/mL; `Cc1ccc(C(=O)OCC(=O)NC2CCCc3ccccc32)o1` (configuration not stated): 13.1 µg/mL (≈ 41.8 µM). In the case of `COc1ccc(Nc2oc(-c3ccccc3)nc2C#N)cc1`, the solubility (kinetic) was 0.5 µg/mL (≈ 1.72 µM). Then `CCCCN(C(=O)C1CCC1)c1c(N)n(CCC)c(=O)[nH]c1=O`, with > 48.4 µg/mL; and `CCOC(=O)c1cc(-c2csc(COc3ccccc3Cl)n2)on1`, with < 0.4 µg/mL; and `CCCNC(=O)N1CCC(c2nc3ccccc3s2)CC1`, with > 45.5 µg/mL. The compound `Cc1cccnc1NC(=O)Nc1ccc(Cl)cc1` yielded a kinetic solubility of 0.7 µg/mL (≈ 2.67 µM). On to `Fc1ccc(CN2CCC(Cc3ccccc3)CC2)cc1F`, for which the kinetic solubility worked out at 8 µg/mL (≈ 26.5 µM). On to `Cc1cc(C)cc(N=Cc2c(O)c3ccccc3oc2=O)c1`, for which the solubility (kinetic) is < 0.6 µg/mL. Next, `COc1cc(OC)cc(C(=O)NC2CCSc3ccccc32)c1` (configuration not stated): 3.9 µg/mL (≈ 11.8 µM).

In turn, `Cl.O=[N+]([O-])c1cccc(CNCc2ccccc2)c1` showed a solubility (kinetic) of 40.2 µg/mL. Regarding `CCOc1ccccc1NC(=O)c1cc(=O)[nH]c2ccc(S(=O)(=O)N3CCOCC3)cc12`, the kinetic solubility was determined as 21.4 µg/mL (≈ 46.8 µM).

For `O=C(Cn1c(=O)oc2ccccc21)Nc1cccc(Cl)c1`, the solubility (kinetic) turned out to be 2.1 µg/mL (≈ 6.94 µM). This solubility kinetic lies about 10-fold lower than the previous one. Regarding `N#CCNC1CC(=O)N(c2ccccc2)C1=O` (configuration not stated), the kinetic solubility is > 34.4 µg/mL. Next, `O=C(Cc1csc(NC(=O)c2ccc(F)cc2)n1)NO`: > 44.3 µg/mL; `CCCN(Cc1cc(=O)[nH]c2ccccc12)C(=O)CC`: 38.5 µg/mL (≈ 141 µM). In the case of `O=[N+]([O-])c1ccc(N2CCN(c3cccc(Cl)c3)CC2)nc1`, the kinetic solubility amounted to 0.4 µg/mL (≈ 1.25 µM). This solubility kinetic is about 96-fold lower than that of the compound before. `O=c1c2oc3nc4c(cc3c2ncn1CCCc1ccccc1)CCCC4` gave a kinetic solubility of 1.3 µg/mL (≈ 3.62 µM). Turning to `CC(=O)c1ccc(S(=O)(=O)NCCC(=O)NC2CCN(Cc3ccccc3)CC2)cc1.O=C(O)C(=O)O`, the solubility (kinetic) was > 80 µg/mL. Take `O=C(COC(=O)CCC(=O)c1ccc(F)cc1)NCc1ccco1`: the solubility (kinetic) is > 50 µg/mL. Then `O=C(O)CCC(=O)N(Cc1ccco1)C1CC(=O)N(c2ccccc2)C1=O` (configuration not stated), with > 55.6 µg/mL.

(Values after PubChem BioAssay AID1996.)
